In patent US8822526B2, “Synergistic pharmaceutical combination for the treatment of cancer” (Piramal Enterprises Limited, priority 2007, dated 2014):

Tests used:
[1] = system: human non-small cell lung carcinoma H-460 cells; assay: In vitro cytotoxicity assay (MTS); settings: for % Cytotoxicity: then complete medium 45 hours
Protocol: The cytotoxicity assay used was MTS (3-(4,5-dimethylthiazol-2-yl)-5-(3-carboxymethoxyphenyl)-2-(4-sulfophenyl)-2H-tetrazolium, inner salt) assay. The human non-small cell lung carcinoma H-460 cells were seeded at a density of 1500 cells/well in 180 μL of culture medium in 96-well plate and incubated overnight to allow the cells to adhere. Varying concentrations of the drugs contained in the combination were added to the wells and incubated for an appropriate period of time in humidified 5% CO2 incubator at 37° C. in case of a single drug exposure. […] Control wells were treated with a vehicle. At the end of the incubation period, the medium was removed from the wells and 20 μL of MTS (2 mg/mL in phosphate buffer saline, pH 6-6.5 and filter sterilized) and 1 μL of phenazine methosulfate (PMS, 3 mM in phosphate buffered saline, pH 7.3 and filter sterilized) was added to each well and the total volume was adjusted to 200 μL with complete medium. The plate was incubated for 2-4 hours in humidified 5% CO2 incubator at 37° C.
(§1) After completion of the drugs treatment i.e. at the end of 96 hours the plates were processed for MTS viability assay and the percent cytotoxicity was calculated as compared to control.
as §1
(§2) The human non-small cell lung carcinoma H-460 cells were seeded at a density of 1500 cells/well. […] After completion of the drugs treatment i.e. at the end of 120 hours the plates were processed for MTS viability assay and the percent cytotoxicity was calculated as compared to control.
as §2
The human non-small cell lung carcinoma H-460 cells were seeded at a density of 1500 cells/well. […] After completion of the drugs treatment i.e. at the end of 120 hours, the plates were processed for MTS viability assay and the percent cytotoxicity was calculated as compared to control.
(§3) After completion of the drugs treatment i.e. at the end of 48 hours the plates were processed for MTS viability assay and the percent cytotoxicity was calculated as compared to control.
The plates were processed for MTS viability assay and the percent cytotoxicity was calculated as compared to control.
as §3
The human non-small cell lung carcinoma H-460 cells were seeded at a density of 1500 cells/well. As per Table 16A the cells were first treated with either of the drugs alone i.e. with doxorubicin or flavopiridol alone. Doxorubicin treatment was for the first 24 hours followed by complete medium for 96 hours while in case of flavopiridol, the first 24 hours was in complete medium followed by flavopiridol for the next 96 hours. […] After completion of the drugs treatment i.e. at the end of 120 hours the plates were processed for MTS viability assay and the percent cytotoxicity was calculated as compared to control.
As per Table 16B the cells were first treated with either of the drugs alone i.e. with doxorubicin or flavopiridol alone. Flavopiridol treatment was for the first 96 hours followed by complete medium for 24 hours while in case of doxorubicin, the first 96 hours was in complete medium followed by doxorubicin for 24 hours. […] After completion of the drugs treatment i.e. at the end of 120 hours, the plates were processed for MTS viability assay and the percent cytotoxicity was calculated as compared to control.
The human non-small cell lung carcinoma H-460 cells were seeded at a density of 1500 cells/well.

[2] = system: human pancreatic (Panc-1) cell line; assay: In vitro cytotoxicity assay (MTS); assay type: cell-based; settings: then complete medium 72 hours
[3] = system: pancreatic cells (Panc-1); assay: Analysis of cell cycle distribution and flow cytometry (sub G1 apoptosis); assay type: cell-based, human; settings: FIG. 3: 70 nM gemcitabine alone (24 hours); 300 nM compound A alone (72 hours); combination 70 nM gemcitabine (24 hours) followed by 300 nM compound A (72 hours)

CC(=O)O[C@@]12CO[C@@H]1C[C@H](O)[C@@]1(C)C(=O)[C@H](O)C3=C(C)[C@@H](OC(=O)[C@H](O)[C@@H](NC(=O)OC(C)(C)C)c4ccccc4)C[C@@](O)([C@@H](OC(=O)c4ccccc4)[C@H]21)C3(C)C [Docetaxel]
% Cytotoxicity ([1]; Docetaxel 0.1 nM first 3 hours, 3000 cells/well): 0%
% Cytotoxicity ([1]; Docetaxel 3 nM first 3 hours, 3000 cells/well): 2%

Nc1ccn([C@@H]2O[C@H](CO)[C@@H](O)C2(F)F)c(=O)n1 [Gemcitabine, 2′-deoxy-2′,2′-difluorocytidine]
% Cytotoxicity ([2]; Gemcitabine 30 nM first 24 hours): 2%
% Cytotoxicity ([2]; Gemcitabine 70 nM first 24 hours): 18%
% Cytotoxicity ([2]; Gemcitabine 100 nM first 24 hours): 38%
% Cytotoxicity ([2]; Gemcitabine 200 nM first 24 hours): 78%
apoptosis (sub G1 phase) [3]: 1.7%

CC(=O)O[C@H]1C(=O)[C@@]2(C)[C@H]([C@H](OC(=O)c3ccccc3)[C@]3(O)C[C@H](OC(=O)[C@H](O)[C@@H](NC(=O)c4ccccc4)c4ccccc4)C(C)=C1C3(C)C)[C@]1(OC(C)=O)CO[C@@H]1C[C@@H]2O [Paclitaxel]
% Cytotoxicity ([1]; Paclitaxel 10 nM first 3 hours, 1500 cells/well): 10%

CN1CC[C@H](c2c(O)cc(O)c3c(=O)cc(-c4ccccc4Cl)oc23)[C@H](O)C1 [Flavopiridol]
IC30 concentration after 48 hours treatment ([1]; H-460 cells, 48 hours treatment): 200 nM
IC50 ([1]; Homo sapiens, NCI-H460, 48 h, read-out: IC50 concentration after 48 hours treatment, H-460 cells, 48 hours treatment): 350 nM
cytotoxicity at 0.2 µM ([1]; Homo sapiens, NCI-H460, 120 h, Flavopiridol 200 nM alone for 120 hours): 39%
cytotoxicity at 0.35 µM ([1]; Homo sapiens, NCI-H460, 120 h, Flavopiridol 350 nM alone for 120 hours): 81%
